From US20180344758A1, “Method of Treating Cancer with cGAMP or cGAsMP” (LIPOGEN LLC, priority 2014, published 2018)

Key:
IFN-β reporter = IFN-β reporter assay in THP1 blue cells; conditions: for inducing the expression of IFN-β reporter: THP1 blue cells, cyclic dinucleotides added to the culture media (FIG. 3A)
Text: (§1) To confirm that cGAMP can induce the expression of IFN-β, we stimulated human monocytes THP1 blue cells with cGAMP and other three cyclic dinucleotides added to the culture media.

IFN-β [1] = assay: IFN-β ELISA of THP1 culture supernatant; conditions: for IFN-β levels in the culture supernatant by ELISA, response: THP1 cells (FIG. 3B); for IFN-β production: THP1 cells (FIGS. 13A-B)
Text: as §1

leukemia cell line SR [2] = assay: MTT assay, SR; assay type: cell-based, human
[3] = tested on: leukemia cell line CCRF-CEM; assay: MTT assay, CCRF-CEM; assay type: cell-based, human; conditions: control leukemia cell line (FIG. 8)
[4] = tested on: renal cancer cell line A498; assay: MTT assay, A498; conditions: FIG. 6B
Experimental: (§2) MTT solution: 5 mg/mL Thiazolyl Blue Tetrazolium Bromide (MTT) in PBS. The solution was filter sterilized after adding MTT and stored at −20° C.; MTT solvent: 4 mM HCl, 0.1% Nondet P-40 (NP40) in isopropanol. cGAMP or cGAsMP solutions: 10-30 mg/ml in PBS, filter sterilized using a 0.2 μm filter. • B. MTT Assay for Attaching Cancer Cell Lines SF539, U251, A498, and ACHN
On day one, one T-25 flask was trypsinized and 5 ml of complete media was added to the cells. The cells and media were centrifuged in a sterile 15 ml falcon tube at 300×g rcf in the swinging bucket rotor for 5 min. […] Cells were counted and recorded per ml. Cells were diluted (cv=cv) to 75,000 cells per ml with complete RPMI media. 100 μl of cells (7500 total cells) were added into each well of a 96 well plate and incubated overnight. 24 hours later, 100 μl of medium or cGAMP or cGAsMP solutions were added to each well. On the fifth day, 20 μl of 5 mg/ml MTT were added to each well. One set of wells with MTT but no cells served as a control. All steps were done aseptically. The wells were incubated for 3.5 hours at 37° C. in a CO2 incubator. Media was carefully removed, taking care not to disturb the cells. No PBS rinse was performed. 150 μl MTT solvent was added. The plate was covered with foil and cells agitated on orbital shaker for 15 min. The absorbance was measured at 590 nm using a plate reader. […]

[5] = tested on: neuronal cancer cell line SF539; assay: MTT assay, SF539
Experimental: as §2
On day one, one T-25 flask was trypsinized and 5 ml of complete media was added to the cells. The cells and media were centrifuged in a sterile 15 ml falcon tube at 300×g rcf in the swinging bucket rotor for 5 min. […] Cells were counted and recorded per ml. Cells were diluted (cv=cv) to 75,000 cells per ml with complete RPMI media. 100 μl of cells (7500 total cells) were added into each well of a 96 well plate and incubated overnight. 24 hours later, 100 μl of medium or cGAMP or cGAsMP solutions were added to each well. On the fifth day, 20 μl of 5 mg/ml MTT were added to each well. One set of wells with MTT but no cells served as a control. All steps were done aseptically. The wells were incubated for 3.5 hours at 37° C. in a CO2 incubator. Media was carefully removed, taking care not to disturb the cells. No PBS rinse was performed. 150 μl MTT solvent was added. The plate was covered with foil and cells agitated on orbital shaker for 15 min. The absorbance was measured at 590 nm using a plate reader. Each assay was repeated five times. • C.

NF-κB = NF-κB reporter assays
[6] = tested on: IFN-β in renal cancer cell line A498; assay: IFN-β induction in A498; conditions: FIG. 7A
[7] = tested on: IFN-β in CNS cancer cell line SF539; assay: IFN-β induction in SF539; conditions: FIG. 7B
leukemia cell line SR [8] = assay: NCI60 antitumor screen, SR; conditions: single dose of 10 μM
[9] = tested on: renal cancer cell line A498; assay: NCI60 antitumor screen, A498; conditions: single dose of 10 μM
[10] = tested on: CNS cancer cell line SF539; assay: NCI60 antitumor screen, SF539; conditions: single dose of 10 μM
[11] = tested on: IFN-β in control cell lines; assay: IFN-β induction in control cell lines; conditions: two control cell lines tested (FIG. 7)
cytokines and chemokines = assay: Multiplex cytokine assays in THP1 cells
[12] = tested on: MMTV-BALB-neuT mouse mammary tumors; assay: MMTV-BALB-neuT spontaneous breast cancer model; conditions: 0.1 mg per mouse intra-tumor once a day for three days; day 4 post-treatment; p value of 0.0009 (FIG. 15D)
Experimental: Comparisons were made between vehicle (veh.) and cGAMP treatment. The tumor growth was monitored for 4 days and growth rate was examined using serial caliper measurements. The tumor volume was calculated using the equation (a×b^2)/2 where “a” and “b” are length and width of the tumor, respectively. At the completion of the experiments, tumors were excised and statistical significance of differences in tumor volume was analyzed.

IFN-β [13] = conditions: intravenous (i.v.) injection, 100 μg/mice, sera ELISA (FIG. 3C)
Text: FIG. 3C is an IFN-β ELISA of sera from mice injected with cGAMP.

[14] = tested on: genome-wide gene expression; assay: Microarray analysis of gene expression in THP1 cells; conditions: 20 μg/ml, 4 hours and 8 hours post treatment (FIG. 5)

What does the source list for `Nc1nc2c(ncn2[C@@H]2O[C@@H]3COP(=O)(O)O[C@H]4[C@@H](O)[C@H](n5cnc6c(N)ncnc65)O[C@@H]4COP(=O)(O)O[C@H]3[C@H]2O)c(=O)[nH]1` [3′,5′ cGAMP, reference compound]?
inducing the expression of IFN-β reporter (IFN-β reporter): lower activity; IFN-β levels in the culture supernatant by ELISA, response (IFN-β [1]): much weaker

With `Nc1nc2c(ncn2[C@@H]2O[C@@H]3COP(=O)(O)O[C@H]4[C@@H](O)[C@H](n5cnc6c(N)ncnc65)O[C@@H]4COP(=O)(O)O[C@@H]2[C@@H]3O)c(=O)[nH]1` [cGAMP, 2′,5′ cGAMP] as the molecule, how does the “response of cell line to treatment, MTT” value (leukemia cell line SR [2]; FIG. 8A (cGAMP), FIG. 8B (IFN-β)) read?
The value was “responds strongly”.

What about the “antitumor activity, MTT” value (leukemia cell line SR [2]; FIG. 14B) of the same molecule?
The value was “have antitumor activity”.

What about the “response of cell line to treatment, MTT” value [3] of the same molecule?
The value was “did not respond”.

What about the “growth suppression, MTT” value [4] of the same molecule?
The value was “suppresses the growth”.

What about the “growth suppression, MTT” value ([5]; FIG. 6A) of the same molecule?
The value was “suppresses the growth”.

And the “antitumor activity, MTT” value ([5]; FIG. 14A)?
Its value is “have antitumor activity”.

And the “activation of NF-κB” value (NF-κB)?
Its value is “stimulate the activation of NF-κB”.

What about the “induction of IFN-β” value [6] of the same molecule?
The value was “induces IFN-β”.

What about the “induction of IFN-β” value [7] of the same molecule?
The value was “induces IFN-β”.

What about the growth inhibition (leukemia cell line SR [8]) of the same molecule?
Its growth inhibition is “effectively inhibited the growth”.

What about the growth inhibition [9] of the same molecule?
The growth inhibition was “effectively inhibited the growth”.

And the growth inhibition [10]?
Its growth inhibition is “effectively inhibited the growth”.

And the “induction of IFN-β” value [11]?
The value was “quite low”.

What about the “inducing the expression of IFN-β reporter” value (IFN-β reporter) of the same molecule?
Its value is “very potent”.

What about the “IFN-β levels in the culture supernatant by ELISA, response” value (IFN-β [1]) of the same molecule?
Its value is “rapid responses”.

And the IFN-β production (IFN-β [1])?
Its IFN-β production is “can induce”.

What about the “time at which induction of IFN-β peaked” value (IFN-β [1]; THP1 cells, ELISA (FIG. 3B)) of the same molecule?
The value was 8-10 hours post stimulation.

What about the “expression of IL-1β” value (cytokines and chemokines; THP1 cell) of the same molecule?
The value was “does not up-regulate”.

What about the “expression of IL-8, TNF-α, GROα, IP-10, MCP-1, MCP-2, and RANTES” value (cytokines and chemokines; THP1 cell (FIG. 4)) of the same molecule?
Its value is “up-regulation”.

What about the “tumor growth and tumor size” value [12] of the same molecule?
The value was “effective for both reducing tumor growth and reducing tumor size”.

What about the “induction of IFN-β in mice” value (IFN-β [13]) of the same molecule?
The value was “rapid responses”.

And the “number of genes up-regulated” value [14]?
Its value is “over 200 genes”.

`Nc1nc2c(ncn2C2OC3COP(=O)(O)OC4C(COP(O)(=S)OC2C3O)OC(n2cnc3c(N)ncnc32)C4O)c(=O)[nH]1` (stereo not shown) [cGAsMP, 2′5′-cGAsMP] was tested. Which “antitumor activity, MTT” value (leukemia cell line SR [2]; FIG. 14B) did it give?
Its value is “have antitumor activity”.

What about the “impact on cell viability compared with cGAMP” value (leukemia cell line SR [2]; FIG. 14B) of the same molecule?
Its value is “generally a bigger impact on cell viability at lower concentrations”.

What about the “antitumor activity, MTT” value ([5]; FIG. 14A) of the same molecule?
Its value is “have antitumor activity”.

And the “impact on cell viability compared with cGAMP” value ([5]; FIG. 14A)?
The value was “generally a bigger impact on cell viability at lower concentrations”.

What about the “potency in inducing IFN-β reporter gene expression, compared” value (IFN-β reporter; THP1 cells, 0.2 to 25 μg/ml (FIG. 13B)) of the same molecule?
Its value is “more potent than cGAMP”.

What about the IFN-β production (IFN-β [1]) of the same molecule?
Its IFN-β production is “can induce”.

What about the “IFN-β levels relative to cGAMP” value (IFN-β [1]; THP1 cells, 5 and 25 μg/ml, ELISA (FIG. 13A)) of the same molecule?
Its value is 5-10 times.
